One compound from publication PMC6152983, “An amine oxidase gene from mud crab, Scylla paramamosain, regulates the neurotransmitters serotonin and dopamine in vitro” (PLoS ONE, 2018) can be followed below.

In the experiment the target is T1, SpAMO (Scylla paramamosain, UniProt A0A3G2KVP6).
T1 sequence (A0A3G2KVP6 2-506): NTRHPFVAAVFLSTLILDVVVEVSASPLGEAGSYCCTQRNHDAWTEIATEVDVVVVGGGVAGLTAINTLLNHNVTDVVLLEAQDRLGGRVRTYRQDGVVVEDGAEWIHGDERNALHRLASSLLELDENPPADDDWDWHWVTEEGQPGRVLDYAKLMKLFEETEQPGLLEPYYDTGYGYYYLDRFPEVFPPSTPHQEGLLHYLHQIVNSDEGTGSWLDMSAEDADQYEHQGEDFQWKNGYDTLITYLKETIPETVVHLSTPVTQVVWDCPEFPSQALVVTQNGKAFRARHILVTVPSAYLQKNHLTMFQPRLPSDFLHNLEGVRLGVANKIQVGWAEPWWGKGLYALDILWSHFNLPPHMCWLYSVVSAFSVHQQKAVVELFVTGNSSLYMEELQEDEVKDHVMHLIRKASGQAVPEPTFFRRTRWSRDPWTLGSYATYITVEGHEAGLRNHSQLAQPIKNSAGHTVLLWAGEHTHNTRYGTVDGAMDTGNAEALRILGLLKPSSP
Put plainly: luminol/horseradish peroxidase chemiluminescence of H2O2. Format: biochemical. As to conditions: glycine buffer pH 8.0, 37 °C; 50 μL of 1.5 mmol/L substrate.

Turning to `NCCc1ccc(O)c(O)c1` [dopamine], the “luminol/horseradish peroxidase chemiluminescence of H2O2” value is “oxidative deamination of 5-HT and DA by SpAMO was significantly stronger”.
